Laboratory results as given in ChEMBL document CHEMBL1201862, “PubChem BioAssay data set” (2004).
Activity calls are given as the source filed them.

How the values were obtained:
[1] = off-target signal loss in HeLa-CEM21 co-culture – HeLa F-luc CTL cells, cherry-picked, counter-screen for HIV-1 Env fusion inhibitor project, dose response (AID 652040); format: functional, cell-based;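 note: potency for signal decrease marking cytotoxic or nonspecific inhibition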
[2] = HIV-1 AD8 envelope cell-cell fusion blockers – cherry-pick, dose response (AID 652062); format: functional, cell-based;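 note: luciferase signal from cell-cell fusion driven by HIV-1 clade B AD8 Env; potency is for inhibitors of fusion seen as a drop in luminescence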
[3] = target: T1, High affinity choline transporter 1 (Homo sapiens, UniProt Q9GZV3); test: human choline transporter blockers, potency – cell-based, 5-point CRC, membrane potential dye, dose response (AID 504840); format: functional
T1 sequence (Q9GZV3 whole entry): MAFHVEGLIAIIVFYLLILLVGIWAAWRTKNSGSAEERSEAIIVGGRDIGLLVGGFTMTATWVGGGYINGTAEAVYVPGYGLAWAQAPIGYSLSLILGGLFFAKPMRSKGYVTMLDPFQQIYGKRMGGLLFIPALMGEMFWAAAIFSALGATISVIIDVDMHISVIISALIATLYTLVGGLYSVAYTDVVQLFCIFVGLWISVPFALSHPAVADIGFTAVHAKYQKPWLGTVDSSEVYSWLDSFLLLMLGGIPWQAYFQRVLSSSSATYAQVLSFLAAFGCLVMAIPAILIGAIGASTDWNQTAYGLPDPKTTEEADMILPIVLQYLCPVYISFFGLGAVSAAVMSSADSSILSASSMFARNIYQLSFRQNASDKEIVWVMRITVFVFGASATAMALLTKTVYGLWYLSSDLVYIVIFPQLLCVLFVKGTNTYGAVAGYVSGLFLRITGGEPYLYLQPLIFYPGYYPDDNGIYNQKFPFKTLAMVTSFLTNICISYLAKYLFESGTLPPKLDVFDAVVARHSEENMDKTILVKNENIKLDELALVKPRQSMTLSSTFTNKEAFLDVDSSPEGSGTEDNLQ

[4] = blockers of HIV-1 ZM109 envelope-driven cell-cell fusion – HeLa effector, CEM target cells, luciferase, cherry-pick, dose response (AID 652058); format: functional, cell-based;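 note: luciferase signal from HIV-1 Env mediated cell-cell fusion of effector and target cells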
Vero = test: cells; format: functional; settings: Chlorocebus sabaeus
[5] = viability loss in THP-1 monocytes – THP-1 cells, cytotoxicity control for Vif-APOBEC3G degradation inhibitor project, dose response (AID 1117359); format: functional; settings: THP-1
[6] = blockers of HIV-1 envelope-mediated cell-cell fusion – cherry-pick, dose response (AID 652057); format: functional, cell-based
[7] = A Cell Based Secondary Assay To Explore Cytotoxicity of Compounds that Sensitize Mycobacterium Tuberculosis to Beta-Lactam Antibiotics.; format: functional
[8] = target: T2, Apoptotic protease-activating factor 1 (Homo sapiens, UniProt O14727); format: functional
T2 sequence (O14727 whole entry): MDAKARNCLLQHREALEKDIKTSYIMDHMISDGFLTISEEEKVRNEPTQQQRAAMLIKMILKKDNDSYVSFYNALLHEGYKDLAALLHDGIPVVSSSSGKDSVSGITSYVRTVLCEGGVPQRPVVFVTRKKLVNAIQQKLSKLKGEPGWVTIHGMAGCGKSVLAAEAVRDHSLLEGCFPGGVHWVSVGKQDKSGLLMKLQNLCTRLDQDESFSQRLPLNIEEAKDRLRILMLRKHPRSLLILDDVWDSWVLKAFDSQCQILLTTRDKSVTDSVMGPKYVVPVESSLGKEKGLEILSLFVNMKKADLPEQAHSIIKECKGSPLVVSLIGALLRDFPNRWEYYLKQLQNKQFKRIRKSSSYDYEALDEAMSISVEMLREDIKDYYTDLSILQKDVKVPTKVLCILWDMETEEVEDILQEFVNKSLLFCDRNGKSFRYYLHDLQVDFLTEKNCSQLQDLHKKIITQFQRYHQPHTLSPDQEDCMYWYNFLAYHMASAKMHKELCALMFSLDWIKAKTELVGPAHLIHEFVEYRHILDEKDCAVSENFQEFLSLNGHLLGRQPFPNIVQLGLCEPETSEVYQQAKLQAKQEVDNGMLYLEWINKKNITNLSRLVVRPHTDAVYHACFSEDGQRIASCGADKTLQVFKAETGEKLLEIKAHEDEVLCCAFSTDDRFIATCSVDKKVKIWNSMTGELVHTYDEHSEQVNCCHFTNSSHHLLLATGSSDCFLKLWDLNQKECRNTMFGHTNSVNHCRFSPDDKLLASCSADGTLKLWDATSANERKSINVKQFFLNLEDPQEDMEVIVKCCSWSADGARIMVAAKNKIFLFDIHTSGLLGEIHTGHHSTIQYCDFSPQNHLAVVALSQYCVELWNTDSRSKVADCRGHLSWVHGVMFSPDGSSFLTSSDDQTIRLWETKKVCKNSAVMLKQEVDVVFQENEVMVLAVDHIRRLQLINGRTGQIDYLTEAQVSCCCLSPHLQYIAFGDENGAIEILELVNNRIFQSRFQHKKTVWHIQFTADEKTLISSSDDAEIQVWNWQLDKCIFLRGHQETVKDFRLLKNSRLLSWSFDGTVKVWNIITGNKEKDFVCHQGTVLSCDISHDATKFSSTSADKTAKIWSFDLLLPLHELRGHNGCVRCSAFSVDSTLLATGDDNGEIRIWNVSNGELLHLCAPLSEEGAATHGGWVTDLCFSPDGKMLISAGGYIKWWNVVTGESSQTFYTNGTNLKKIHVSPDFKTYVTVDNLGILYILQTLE

[9] = P. falciparum Dd2 growth inhibitors, dose response, SYBR Green, cherry-picked samples (AID 1159567); format: functional, cell-based
[10] = growth inhibition of yeast DHODH-expressing 3D7 parasites – SYBR Green, dry powder samples, dose response (AID 1159570); format: functional, cell-based;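 note: parasite growth measured after 72 hours of compound exposure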
[11] = growth inhibition of PfATP4-mutant resistant parasites – NITD609-resistant line, SYBR Green, dry powder, dose response (AID 1159571); format: functional, cell-based;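 note: parasites synchronized at ring stage by sorbitol before testing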
[12] = Dd2 malaria parasite growth inhibition potency – SYBR Green, dry powder samples, dose response (AID 1159566); format: functional, cell-based;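 note: potency for growth inhibition with lower SYBR green DNA signal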

In the case of `CN(Cc1cccs1)c1ncnc2sccc12`, the AC50 [1] is reported as 56.6 µM (active), the AC50 [2] is reported as 16.9 µM (active) and the IC50 [3] is reported as 4.57 µM (active). The AC50 [4] was 1.3 µM (active).
In the case of `O=C(/C=C/c1ccccc1)c1ccc2ccccc2c1`, the CC50 (Vero) is reported as > 25 µM (active).
With `CCc1nc2cc(Cc3ccc4[nH]c(CC)nc4c3)ccc2[nH]1` the CC50 [5] was 15.5 µM (active).
In the case of `Cc1ccc(S(=O)(=O)N(C)C[C@@H]2Oc3ccc(NC(=O)C4CCCCC4)cc3CC(=O)N([C@@H](C)CO)C[C@@H]2C)cc1`, the AC50 [2] is reported as 12.2 µM (active), the AC50 [4] is reported as 2 µM (active) and the AC50 [6] is reported as 3.75 µM (active).
In the case of `CCN1C[C@@H]2[C@@H]3C(=O)N(Cc4ccccc4)C(=O)[C@@H]3[C@](CC)(C1=O)N2C(=O)c1ccc(C(C)(C)C)cc1`, the AC50 [1] is reported as 15.4 µM (active), the AC50 [2] is reported as 4.4 µM (active) and the AC50 [4] is reported as 20.2 µM (active). The AC50 [6] was 5.77 µM (active).
In the case of `CC(C)C[C@H]1COCn2nncc2CC[C@@H](Cc2ccccc2)C(=O)N1`, the AC50 [2] is reported as 12.9 µM (active), the AC50 [4] is reported as 7.51 µM (active) and the AC50 [6] is reported as 7.3 µM (active).
For `Cc1nn(-c2ccccc2)c(O)c1/C=N/NC(=O)c1ccoc1C`, the CC50 [7] was 4.71 µM (active) and the IC50 [8] was 11.2 µM (active).
In the case of `COc1ccc2c3c(n(C)c2c1)[C@@H](CO)N(CC1CCCCC1)CC31CCN(Cc2nccs2)CC1`, the AC50 [9] is reported as 1.12 µM (active), the AC50 [10] is reported as 835 nM (active) and the AC50 [11] is reported as 891 nM (active). The AC50 [12] was 1.03 µM (active).
For `COc1ccc(NC(=O)N2CCCCN3[C@H](CO)[C@H](c4ccc(C#Cc5ccccn5)cc4)[C@@H]3C2)cc1`, the AC50 [9] was 0.301 µM (active), the AC50 [10] was 109 nM (active) and the AC50 [11] was 109 nM (active). For the same molecule, the AC50 [12] was 0.131 µM (active).
